From PubChem BioAssay AID1963849 (Molecular Pharmacology Branch, DTP, NCI, 2024)
Several values for one entry are separate records, joined by “and”; a condition that tells them apart may be missing. Identical values can stand only once.

Tested on: 299254-011-R-J1-PDC complex spheroid viability
Test: Anticancer human tumor 299254-011-R-J1-PDC patient-derived melanoma cell line growth inhibition [POLQ]
Conditions: for viability, T/C: stronger effect = lower value
Description: Multicellular complex tumor spheroid response to Polymerase (POL) inhibitors (novobiocin, ART-558, RP6685) in combination with a variety of drugs and investigational agents in selected tumor cell lines
The POL inhibitors (novobiocin, ART-558, and RP6685) were evaluated both individually and in combination with standard of care and investigational anticancer small molecules within a complex spheroid model of solid tumors. . Complex spheroids include a stromal component modeled by human endothelial cells (HUVEC) and fibroblasts modeled by human mesenchymal stem cells (MSCs). The concentration ranges selected for each drug and investigational agent were based upon clinically achievable concentrations if the clinical Cmax of the agent was known.
Compounds. The drugs and investigational agents: novobiocin (NSC847541), ART-558 (NSC835418), RP-6685 (NSC848927), peposertib (NSC802822), ceralasertib (NSC780249), elimusertib (NSC800525), camonsertib (NSC841442), AZD-1390 (NSC803789), olaparib (NSC753686), talazoparib (NSC767125), rucaparib (NSC756644), sotorasib (NSC818433), MRTX-1133 (NSC836407), SN-38 (NSC673596), topotecan (NSC609699), epotoside (NSC141540), doxorubicin (NSC123127), gemcitabine (NSC613327), 5-fluorouracil (NSC19893), paclitaxel (NSC125973), vemurafenib (NSC761431), MSA-2 (NSC828583), SN-011 (NSC837082), adavosertib (NSC754352), prexasertib (NSC758257), carboplatin (NSC241240) and oxaliplatin (NSC266046), were obtained from the National Cancer Institute (NCI) Developmental Therapeutics Program Chemical Repository (21). The FDA-approved anticancer drug set is available from the Developmental Therapeutics Program at https://dtp.cancer.gov/organization/dscb/obtaining/. […] The stock solutions were prepared in dimethyl sulfoxide (DMSO, Sigma-Aldrich, St. Louis, MO, cat. D2650), except for the platinum compounds which were prepared in saline (Quality Biological, Gaithersburg, MD, cat. 114-055-101), at 800-fold the tested concentration and stored at -70 degrees C prior to their use. All drugs and investigational agents were tested over a range starting from a high concentration at or near the clinical Cmax and decreasing in half-log increments. If the clinical Cmax for an agent had not been determined, the highest concentration tested was 10 microM, except for SN-38, which was tested at a high concentration of 1 microM.
Cell Culture. All cells were maintained in an incubator at 37 degrees C and 5% CO2 with 95% humidity. The PDC lines were cultured according to standard operating procedures established by the NCI PDMR (https://pdmr.cancer.gov). Table 3 of the manuscript, lists the cell lines along with the number of the three cell types plated to form the mct-spheroids and media for tumor cell growth. After thawing, all PDC lines, except 997537-175-T-J1-PDC and 415267-285-R-J2-PDC, were cultured in Matrigel-coated flasks prepared with a working solution of 1X Ham's F-12 nutrient mix, without supplementation (Thermo Fisher Scientific, cat. 11765054), 100 U/mL penicillin-streptomycin (Thermo Fisher Scientific, cat. 15140122), and 2.5% Matrigel (Corning Inc., Corning, NY, cat. 354248) for the first three passages. The two PDC lines 997537-175-T-J1-PDC and 415267-285-R-J2-PDC were cultured on uncoated flasks. The 857933-349-R-J2-PDC line was cultured in 6C/Colon 1B media containing advanced DMEM/F-12 (Thermo Fisher Scientific, cat. 12634028), 10 mM HEPES (Thermo Fisher Scientific, cat. 15630080), 1X GlutaMAX supplement (Thermo Fisher Scientific, cat. 35050061), 0.1 mg/mL primocin (InvivoGen, San Diego, CA, cat. ant-pm-2), 10% defined fetal bovine serum, heat inactivated (HyClone Laboratories Inc., Logan, UT, cat. SH30070.03HI), 50% L-WRN conditioned media (ATCC, cat. CRL-3276), 1.25 mM N-Acetyl-L-cysteine (Sigma-Aldrich, cat. A9165), 10 mM nicotinamide (Sigma-Aldrich, cat. N0636), 1X B-27 supplement (Thermo Fisher Scientific, cat. 17504044), 1X N-2 supplement (Thermo Fisher Scientific, cat. […]

[1] = curve of first compound, second compound 0.0316 µM
[2] = curve of first compound, second compound 0.1 µM
[3] = curve of first compound, second compound 0.316 µM
[4] = curve of first compound, second compound 1 µM
[5] = curve of first compound, second compound 3.16 µM
[6] = curve of first compound, second compound 10 µM
[7] = second compound 0.0316 µM, first compound 0.0316 µM
[8] = second compound 0.0316 µM, first compound 0.1 µM
[9] = second compound 0.1 µM, first compound 0.0316 µM
[10] = second compound 0.1 µM, first compound 0.1 µM
[11] = second compound 0.316 µM, first compound 0.0316 µM
[12] = second compound 0.316 µM, first compound 0.1 µM
[13] = second compound 1 µM, first compound 0.0316 µM
[14] = second compound 1 µM, first compound 0.1 µM
[15] = second compound 3.16 µM, first compound 0.0316 µM
[16] = second compound 3.16 µM, first compound 0.1 µM
[17] = second compound 10 µM, first compound 0.0316 µM
[18] = second compound 10 µM, first compound 0.1 µM
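Note: spheroids exposed to drugs for one week before measurement.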
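Throughout, for viability, T/C: percent viability relative to DMSO vehicle control taken as 100%.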

CC[C@@]1(O)C(=O)OCc2c1cc1n(c2=O)Cc2cc3c(CN(C)C)c(O)ccc3nc2-1 + Cc1cccc(N(C)C(=O)C2C(O)CCN2c2nc(C)cc(C(F)(F)F)c2C#N)c1
IC50 [1]: > 100 nM | IC50 [2]: > 100 nM | IC50 [3]: > 100 nM | IC50 [4]: > 100 nM | IC50 [5]: > 100 nM | IC50 [6]: > 100 nM | viability, T/C (second compound 0.0316 µM, first compound 0.000316 µM): 101% | viability, T/C (second compound 0.0316 µM, first compound 0.001 µM): 100% | viability, T/C (second compound 0.0316 µM, first compound 0.00316 µM): 95.6% | viability, T/C (second compound 0.0316 µM, first compound 0.01 µM): 104% | viability, T/C [7]: 117% | viability, T/C [8]: 81% | viability, T/C (second compound 0.1 µM, first compound 0.000316 µM): 104% | viability, T/C (second compound 0.1 µM, first compound 0.001 µM): 98.6% | viability, T/C (second compound 0.1 µM, first compound 0.00316 µM): 97% | viability, T/C (second compound 0.1 µM, first compound 0.01 µM): 113% | viability, T/C [9]: 113% | viability, T/C [10]: 84.1% | viability, T/C (second compound 0.316 µM, first compound 0.000316 µM): 110% | viability, T/C (second compound 0.316 µM, first compound 0.001 µM): 115% | viability, T/C (second compound 0.316 µM, first compound 0.00316 µM): 103% | viability, T/C (second compound 0.316 µM, first compound 0.01 µM): 120% | viability, T/C [11]: 116% | viability, T/C [12]: 80.9% | viability, T/C (second compound 1 µM, first compound 0.000316 µM): 111% | viability, T/C (second compound 1 µM, first compound 0.001 µM): 112% | viability, T/C (second compound 1 µM, first compound 0.00316 µM): 100% | viability, T/C (second compound 1 µM, first compound 0.01 µM): 123% | viability, T/C [13]: 99.2% | viability, T/C [14]: 90.5% | viability, T/C (second compound 3.16 µM, first compound 0.000316 µM): 108% | viability, T/C (second compound 3.16 µM, first compound 0.001 µM): 115% | viability, T/C (second compound 3.16 µM, first compound 0.00316 µM): 89.1% | viability, T/C (second compound 3.16 µM, first compound 0.01 µM): 106% | viability, T/C [15]: 119% | viability, T/C [16]: 89.6% | viability, T/C (second compound 10 µM, first compound 0.000316 µM): 94.9% | viability, T/C (second compound 10 µM, first compound 0.001 µM): 102% | viability, T/C (second compound 10 µM, first compound 0.00316 µM): 90.8% | viability, T/C (second compound 10 µM, first compound 0.01 µM): 97% | viability, T/C [17]: 95.3% | viability, T/C [18]: 69.7%

CCCS(=O)(=O)Nc1ccc(F)c(C(=O)c2c[nH]c3ncc(-c4ccc(Cl)cc4)cc23)c1F
viability, T/C (compound 0.0316 µM): 114% and 106% and 96.5% | viability, T/C (compound 0.1 µM): 99.7% and 109% and 112% | viability, T/C (compound 0.316 µM): 118% and 95.7% and 123% | viability, T/C (compound 1 µM): 102% and 122% and 117% | viability, T/C (compound 3.16 µM): 109% and 107% and 120% | viability, T/C (compound 10 µM): 50.6% and 47.5% and 69.2% | IC50 (curve of compound): > 10000 nM and 9540 nM

CC1COCCN1c1cc(-c2ccnn2C)c2ccnc(-c3ccn[nH]3)c2n1 (stereo unspecified) + COC1C(OC(N)=O)C(O)C(Oc2ccc3c(O)c(NC(=O)c4ccc(O)c(CC=C(C)C)c4)c(=O)oc3c2C)OC1(C)C
IC50 [1]: 216 nM | IC50 [2]: 232 nM | IC50 [3]: 236 nM | IC50 [4]: 242 nM | IC50 [5]: 236 nM | IC50 [6]: 295 nM | viability, T/C [7]: 104% | viability, T/C [8]: 71.6% | viability, T/C (second compound 0.0316 µM, first compound 0.316 µM): 39% | viability, T/C (second compound 0.0316 µM, first compound 1 µM): 28.6% | viability, T/C (second compound 0.0316 µM, first compound 3.16 µM): 36.5% | viability, T/C (second compound 0.0316 µM, first compound 10 µM): 19.8% | viability, T/C [9]: 106% | viability, T/C [10]: 69.5% | viability, T/C (second compound 0.1 µM, first compound 0.316 µM): 43% | viability, T/C (second compound 0.1 µM, first compound 1 µM): 27% | viability, T/C (second compound 0.1 µM, first compound 3.16 µM): 36.9% | viability, T/C (second compound 0.1 µM, first compound 10 µM): 18.8% | viability, T/C [11]: 88.8% | viability, T/C [12]: 63.6% | viability, T/C (second compound 0.316 µM, first compound 0.316 µM): 46.7% | viability, T/C (second compound 0.316 µM, first compound 1 µM): 28.9% | viability, T/C (second compound 0.316 µM, first compound 3.16 µM): 31.3% | viability, T/C (second compound 0.316 µM, first compound 10 µM): 18.9% | viability, T/C [13]: 92.4% | viability, T/C [14]: 72.2% | viability, T/C (second compound 1 µM, first compound 0.316 µM): 43.2% | viability, T/C (second compound 1 µM, first compound 1 µM): 26.9% | viability, T/C (second compound 1 µM, first compound 3.16 µM): 38.4% | viability, T/C (second compound 1 µM, first compound 10 µM): 16.6% | viability, T/C [15]: 94.6% | viability, T/C [16]: 75% | viability, T/C (second compound 3.16 µM, first compound 0.316 µM): 42% | viability, T/C (second compound 3.16 µM, first compound 1 µM): 26.5% | viability, T/C (second compound 3.16 µM, first compound 3.16 µM): 35.9% | viability, T/C (second compound 3.16 µM, first compound 10 µM): 22.7% | viability, T/C [17]: 102% | viability, T/C [18]: 82.1% | viability, T/C (second compound 10 µM, first compound 0.316 µM): 47.9% | viability, T/C (second compound 10 µM, first compound 1 µM): 30.6% | viability, T/C (second compound 10 µM, first compound 3.16 µM): 41.7% | viability, T/C (second compound 10 µM, first compound 10 µM): 20%
